Data set [1] is described as follows: Quantification of CLF in 5 human plasma samples by HPLC-MS/MS with calibration curves from SS CLF-MetOH and SS CLF-EtOH. Type of data set: physicochemical. The method, then:
Two working solutions of CLF were prepared. […] Five human plasma samples, spiked with CLF from both working solutions, were prepared for HPLC-MS/MS analysis. These samples (named S1, S2, S3, S4 and S5) were thawed at room temperature, extemporaneously, and 100 μl of each were transferred in appropriate tubes. The HPLC-MS/MS analysis was conducted with two calibration curves, constituted with 7 single points (non zero). The first one was prepared by serial dilutions in methanol of the working solution named SS CLF-MetOH. The second one was prepared by serial dilutions in methanol of the working solution named SS CLF-EtOH. Both working solutions were centrifuged 5 min at 3000 g before dilutions. These dilutions of CLF in methanol allowed obtaining the 10× standard solutions used for standard sample preparation. Then, calibration curves were prepared by adding 10 μl of the concentrated standard solutions to 90 μl of free-drug human plasma. The final concentrations of calibrators were of 1000, 500, 250, 100, 25, 5 and 1 ng/ml. […] The contents of CLF were determined in 5 human plasma samples provided, according to the standard curve generated from both separate working solutions. […] The content of CLF was semi-quantified using data previously obtained. The UV response at 254 nm was used for semi-quantification. […] The differences between both quantifications were also evaluated as follows: […]

The nature of data set [2]: Stability of CLF in human plasma at room temperature and 4° C. after 30 min pre-incubation in whole blood at 37° C. (Test 2), HPLC-MS/MS. The class given is in vitro ADME. The settings on record: for CLF concentration: plasma after 30 min blood pre-incubation at 37° C., mean ± SEM (n = 2); for percentage of compound remaining (by comparing with content at To), lowest over incubation / CLF remaining: plasma after blood pre-incubation; for percentage of compound remaining (by comparing with content at To), lowest over incubation: up to 24 h; for CLF remaining: vs To. The method, then: Eighty microliters (80 μl) of the working solution of CLF were added to 8 ml of human EDTA blood. The final concentration of CLF in blood was of 100 ng/ml. Then, sample was incubated at 37° C. in water bath for 30 min and plasma was prepared as described previously. Plasma was then divided into two equal fractions of 2 ml each. One fraction was incubated at room temperature and the second one was incubated at 4° C. in a cold room. Two aliquots of 200 μl were taken from both fractions just before incubation and after 30 min, 120 min and 24 h of incubation. Samples were stored at −70° C. until further analysis. […] Thus, a stock solution of IS at 100 μg/ml in acetonitrile was 50-fold diluted in acetonitrile in order to obtain a final concentration of 2 μg/ml. Then, 200 μl of this solution were added to each plasma sample in order to precipitate the proteins. Samples were vortexed/mixed and centrifuged 5 min at 20,000 g (4° C.). After centrifugation, the clear supernatant (around 250 μl) was transferred into 1.2 ml HPLC glass vials and sealed. Samples were placed into the refrigerated autosampler and 20 μl were injected into the HPLC-MS/MS system. Test samples were injected twice. […] The injected volume of sample was 20 μl and the “full loop” mode was applied. The temperature of the analytical column was kept at 30° C. CLF and its IS were separated on an Acclaim 120 C18 column (5 μm, 2.1×100 mm, Dionex) by elution with a linear gradient of acetonitrile in water as described in Table 6. An ion trap mass spectrometer equipped with an ESI interface was operated in the positive ionization mode. For each compound, the most abundant ion formed in MS was selected for MS/MS fragmentations. In order to increase the sensitivity and the specificity of the method, the MRM mode was selected. The most specific daughter ions formed in MS/MS were used for quantification.

The mark [3] stands for this setting: room temperature (25 ± 2° C.), 0.0 hours.
Setting [4] is: room temperature (25 ± 2° C.), 0.5 hours.
[5] abbreviates: room temperature (25 ± 2° C.), 2.0 hours.
The mark [6] stands for this setting: room temperature (25 ± 2° C.), 24.0 hours.

Each structure is given as a SMILES string. “Also recorded” adds a separate entry of the source. Bounds are passed on as bounds.

With `CC(CCC(=O)NC(CCCCNC(=S)Nc1ccc(-c2c3ccc(=O)cc-3oc3cc(O)ccc23)c(C(=O)O)c1)C(=O)O)C1CCC2C3C(O)CC4CC(O)CCC4(C)C3CC(O)C12C` [CLF, Cholyl-L-Lysyl-Fluorescein], the “quantitative value of CLF prepared in methanol (100%) relative to CLF prepared in aqueous ethanol (higher by)” value in data set [1] (EtOH:H2O:NaOH (50%) 500:1000:30, both immunoassay and HPLC methodologies) is recorded as “approximately 40%”. The “tautomerization of CLF” value in data set [1] (isomeric form of SS CLF-EtOH not detected in standard samples in human plasma) is “reversible and depends on the pH of the medium; also recorded: reversible and is dependent on the pH of the medium”. In addition, the plasmatic concentrations measured in data set [2] (blood spiked with 100 ng/ml, plasma at 4° C. and room temperature, 0-24 h) fell in the range of 147.7 to 164.9 ng/mL. Further, the CLF concentration worked out at 163.3 ± 3.6 ng/mL in data set [2] (4° C., 0.0 hours); 155.4 ± 7.0 ng/mL in data set [2] (4° C., 0.5 hours); 164.9 ± 4.2 ng/mL in data set [2] (4° C., 2.0 hours); 152.7 ± 4.2 ng/mL in data set [2] (4° C., 24.0 hours); 163.3 ± 3.6 ng/mL in data set [2] (setting [3]); 159.3 ± 0.6 ng/mL in data set [2] (setting [4]). Also, the CLF concentration in data set [2] (setting [5]) stood at 151.1 ± 0.8 ng/mL; in data set [2] (setting [6]), 147.7 ± 3.7 ng/mL. Moreover, the “percentage of compound remaining (by comparing with content at To), lowest over incubation” value in data set [2] (4° C.) is no less than 93.5%; in data set [2] (room temperature) it was “at least 90.5%”. Besides, the CLF remaining in data set [2] (4° C., 0.0 hours) was found to be 100.0%; in data set [2] (4° C., 0.5 hours), 95.2%; in data set [2] (4° C., 2.0 hours) it was 101.0%; in data set [2] (4° C., 24.0 hours), 93.5%; in data set [2] (setting [3]) it was 100.0%; in data set [2] (setting [4]) it was 97.6%. Also, the CLF remaining in data set [2] (setting [5]) was determined as 92.5%; in data set [2] (setting [6]) it was 90.5%. Also, the “CLF stability in plasma after pretreatment of whole blood at 37° C.” value in data set [2] (room temperature and 4° C., up to 24 hours) is “stable during 24 h; also recorded: stable under these conditions”.

(Values after US20150212068A1, “Cholyl-L-Lysyl-Fluorescein Assay” (Novassay SA, priority 2012, published 2015).)
